Patent EP4782445A1, “CDK KINASE INHIBITOR AND USE THEREOF” (Abbisko Therapeutics Co., Ltd., priority 2023, dated 2025)

Columns and labels:
CDK6/cyclin D3 = biological target: T1, CDK6/cyclin D3 (Homo sapiens, UniProt Q00534); experiment: In vitro biochemical kinase activity assay for CDK6/cyclin D3 (HTRF)
T1 construct: purchased Carna
Outline: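 HTRF assay: 0.02 nM CDK6/cyclin D3 incubated with 1 mM (or 100 µM) ATP and 0.3 µM Rb-biotin substrate at 30°C for 60 min in kinase buffer with 5 mM MgCl2 and 1 mM DTT.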

CDK4/cyclin D3 = biological target: T2, CDK4/cyclin D3 (Homo sapiens, UniProt P11802); experiment: In vitro biochemical kinase activity assay for CDK4/cyclin D3 (HTRF)
T2 construct: purchased Carna
T2 sequence (P11802 whole entry): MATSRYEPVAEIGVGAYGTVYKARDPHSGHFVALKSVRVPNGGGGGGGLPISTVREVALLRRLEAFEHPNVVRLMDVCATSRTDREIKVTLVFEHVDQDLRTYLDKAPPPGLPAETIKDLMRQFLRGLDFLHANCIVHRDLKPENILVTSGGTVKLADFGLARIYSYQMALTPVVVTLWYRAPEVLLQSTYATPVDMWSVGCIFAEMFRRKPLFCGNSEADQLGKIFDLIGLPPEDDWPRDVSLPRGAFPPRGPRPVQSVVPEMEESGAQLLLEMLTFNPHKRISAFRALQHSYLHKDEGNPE
T2 sequence (P30281 whole entry partner): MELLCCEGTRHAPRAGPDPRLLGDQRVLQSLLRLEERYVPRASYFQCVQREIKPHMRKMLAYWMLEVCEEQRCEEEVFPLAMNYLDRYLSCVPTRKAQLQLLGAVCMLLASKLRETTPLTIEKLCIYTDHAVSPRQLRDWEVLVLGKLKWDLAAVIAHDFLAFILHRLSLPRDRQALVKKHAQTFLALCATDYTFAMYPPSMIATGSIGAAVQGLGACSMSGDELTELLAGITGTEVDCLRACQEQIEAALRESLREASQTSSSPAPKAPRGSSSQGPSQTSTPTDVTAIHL
Outline: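 HTRF kinase reaction: 4.9 nM CDK4/cyclin D3, 1 mM (or 80 µM) ATP and 0.3 µM Rb-biotin substrate, 90 min at 30°C in buffer with 50 mM MgCl2 and 1 mM DTT.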

CDK2/cyclin E1 = biological target: T3, CDK2/cyclin E1 (Homo sapiens, UniProt P24941); experiment: In vitro biochemical kinase activity assay for CDK2/cyclin E1 (HTRF); settings: 1 µM ATP
T3 construct: purchased Carna
Experimental: I. In Vitro Biochemical Kinase Activity Assay for CDK2/Cyclin E1
The inhibitory effects of the compounds of the present invention on CDK2/cyclin E1 kinase activity were determined using a homogeneous time-resolved fluorescence (HTRF) assay. The experimental process was as follows: • 1. The kinase reaction was carried out in a 384-well plate. 15 nM CDK2/cyclin E1 kinase (Carna), 1 µM ATP, and 1 µM biotin-labeled substrate protein ATF2-biotin (Cisbio) were incubated at room temperature for 90 min in a buffer system composed of 10 mM MgCl2, 1 mM MnCl2, 1 mM DTT, and basal kinase buffer (Cisbio). • 2. The detection solution (Cisbio, containing reagents that specifically recognize phosphorylated ATF2 and ATF2-biotin proteins, respectively) was added. The plate was then sealed with a film (to protect from light and volatilization) and incubated at 25°C for 60 min. • 3. The plate was transferred to an Envision plate reader to detect fluorescence resonance energy transfer (FRET) signals. (The 665/615 ratio was calculated by reading the emission at 665 nm and 615 nM, respectively.) • 4. The IC50 values were determined by analyzing the inhibition at varying compound concentrations using Model 205 in the XLfit software.

[1] = unmarked data: 100 µM ATP in Step 1
[2] = unmarked data: 80 µM ATP in Step 1
[3] = data marked with *: 1 mM ATP in Step 1

T1 sequence (Q00534 whole entry): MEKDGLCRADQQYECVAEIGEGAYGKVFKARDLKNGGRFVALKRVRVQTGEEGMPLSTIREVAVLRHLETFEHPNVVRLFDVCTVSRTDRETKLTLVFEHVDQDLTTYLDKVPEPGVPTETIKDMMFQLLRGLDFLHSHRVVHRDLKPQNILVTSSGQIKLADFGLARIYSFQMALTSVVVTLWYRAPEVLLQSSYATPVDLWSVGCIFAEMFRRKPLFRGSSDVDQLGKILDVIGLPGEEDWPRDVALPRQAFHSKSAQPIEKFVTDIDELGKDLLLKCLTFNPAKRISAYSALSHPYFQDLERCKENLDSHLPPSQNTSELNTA
T1 sequence (P30281 whole entry partner): as the sequence (P30281 whole entry partner) above

SMILES: CCN1CCN(Cc2ccc(Nc3ncc(Cl)c(C#Cc4cnc(C(C)(C)O)n4C(C)C)n3)nc2)CC1 [Example 41, 2-(5-((5-chloro-2-((5-((4-ethylpiperazin-1-yl)methyl)pyridin-2-yl)amino)pyrimidin-4-yl)ethynyl)-1-isopropyl-1H-imidazol-2-yl)propan-2-ol]
- IC50 (CDK6/cyclin D3; [1]): 11 nM
- IC50 (CDK4/cyclin D3; [2]): 1.83 nM
- IC50 (CDK2/cyclin E1): 1850 nM

SMILES: CC(C)c1c(C#Cc2nc(N[C@@H]3CCOC[C@H]3O)ncc2Cl)cnn1C [Example 56, (3 S,4R)-4-((5-chloro-4-((5-isopropyl-1-methyl-1H-pyrazol-4-yl)ethynyl)pyrimidin-2-yl)amino)tetrahydro-2H-pyran-3-ol]
- IC50 (CDK6/cyclin D3; [1]): 49 nM
- IC50 (CDK4/cyclin D3; [2]): 3.07 nM
- IC50 (CDK2/cyclin E1): 1370 nM

SMILES: CC(C)n1c(C#Cc2nc(N[C@@H]3CCOC[C@H]3O)ncc2Cl)cnc1[C@@H](C)O [Example 31, (3 S,4R)-4-((5-chloro-4-((2-((R)-1-hydroxyethyl)-1-isopropyl-1H-imidazol-5-yl)ethynyl)pyrimidin-2-yl)amino)tetrahydro-2H-pyran-3-ol]
- IC50 (CDK6/cyclin D3; [1]): 47.1 nM
- IC50 (CDK4/cyclin D3; [2]): 7.85 nM
- IC50 (CDK2/cyclin E1): 590 nM

SMILES: CC(C)n1c(C#Cc2nc(Nc3ccc(C4CCN(C)CC4)cn3)ncc2Cl)cnc1C(C)(C)O [Example 55, 2-(5-((5-chloro-2-((5-(1-methylpiperidin-4-yl)pyridin-2-yl)amino)pyrimidin-4-yl)ethynyl)-1-isopropyl-1H-imidazol-2-yl)propan-2-ol]
- IC50 (CDK6/cyclin D3; [1]): 1.9 nM
- IC50 (CDK4/cyclin D3; [2]): 0.33 nM
- IC50 (CDK2/cyclin E1): 2120 nM

SMILES: CNCc1ncc(C#Cc2nc(N[C@@H]3CCOC[C@H]3O)ncc2Cl)n1C(C)C [Example 35, (3 S,4R)-4-((5-chloro-4-((1-isopropyl-2-((methylamino)methyl)-1H-imidazol-5-yl)ethynyl)pyrimidin-2-yl)amino)tetrahydro-2H-pyran-3-ol]
- IC50 (CDK6/cyclin D3; [1]): 131 nM
- IC50 (CDK4/cyclin D3; [2]): 19 nM
- IC50 (CDK2/cyclin E1): 539 nM

SMILES: CC(C)n1c(C#Cc2nc(N[C@@H]3CCOC[C@H]3O)ncc2Cl)cnc1[C@H](C)O [Example 30, (3 S,4R)-4-((5-chloro-4-((2-((S)-1-hydroxyethyl)-1-isopropyl-1H-imidazol-5-yl)ethynyl)pyrimidin-2-yl)amino)tetrahydro-2H-pyran-3-ol]
- IC50 (CDK6/cyclin D3; [1]): 11.4 nM
- IC50 (CDK4/cyclin D3; [2]): 1.14 nM
- IC50 (CDK2/cyclin E1): 125 nM

SMILES: CC(C)n1c(C#Cc2nc(N[C@H]3CCOC[C@@H]3O)ncc2Cl)cnc1C(C)(C)O [Example 3, (3R,4S)-4-((5-chloro-4-((2-(2-hydroxypropan-2-yl)-1-isopropyl-1H-imidazol-5-yl)ethynyl)pyrimidin-2-yl)amino)tetrahydro-2H-pyran-3-ol]
- IC50 (CDK2/cyclin E1): 467 nM

SMILES: CC(C)c1c(C#Cc2nc(N[C@@H]3CCOC[C@H]3O)ncc2Cl)cnn1CC(C)(C)O [Example 64, (3 S,4R)-4-((5-chloro-4-((1-(2-hydroxy-2-methylpropyl)-5-isopropyl-1H-pyrazol-4-yl)ethynyl)pyrimidin-2-yl)amino)tetrahydro-2H-pyran-3-ol]
- IC50 (CDK6/cyclin D3; [1]): 132 nM
- IC50 (CDK4/cyclin D3; [2]): 13.2 nM

SMILES: CC(C)c1nn(CC(C)(C)O)cc1C#Cc1nc(N[C@@H]2CCOC[C@H]2O)ncc1Cl [Example 65, (3 S,4R)-4-((5-chloro-4-((1-(2-hydroxy-2-methylpropyl)-3-isopropyl-1H-pyrazol-4-yl)ethynyl)pyrimidin-2-yl)amino)tetrahydro-2H-pyran-3-ol]
- IC50 (CDK6/cyclin D3; [1]): 1200 nM
- IC50 (CDK4/cyclin D3; [2]): 119 nM

SMILES: CCN1CCN(C(=O)c2ccc(Nc3ncc(Cl)c(C#Cc4cnc(C(C)(C)O)n4C(C)C)n3)nc2)CC1 [Example 67, (6-((5-chloro-4-((2-(2-hydroxypropan-2-yl)-1-isopropyl-1H-imidazol-5-yl)ethynyl)pyrimidin-2-yl)amino)pyridin-3-yl)(4-ethylpiperazin-1-yl)methanone]
- IC50 (CDK6/cyclin D3; [1]): 5.88 nM
- IC50 (CDK4/cyclin D3; [2]): 1.17 nM

SMILES: CC1CCN(C)c2ncc(C#Cc3nc(N[C@@H]4CCOC[C@H]4O)ncc3Cl)n21 (stereo partly drawn) [Example 135, (3 S,4R)-4-((5-chloro-4-((5,8-dimethyl-5,6,7,8-tetrahydroimidazo[1,2-a]pyrimidin-3-yl)ethynyl)pyrimidin-2-yl)amino)tetrahydro-2H-pyran-3-ol]
- IC50 (CDK6/cyclin D3; [3]): 275 nM
- IC50 (CDK4/cyclin D3; [3]): 177 nM

SMILES: CC(=O)N1CCN(Cc2ccc(Nc3ncc(Cl)c(C#Cc4cnc(CN5CCC[C@H](O)C5)n4C(C)C)n3)nc2)CC1 [Example 106, (S)-1-(4-((6-((5-chloro-4-((2-((3-hydroxypiperidin-1-yl)methyl)-1-isopropyl-1H-imidazol-5-yl)ethynyl)pyrimidin-2-yl)amino)pyridin-3-yl)methyl)piperazin-1-yl)ethan-1-one]
- IC50 (CDK6/cyclin D3; [3]): 280 nM
- IC50 (CDK4/cyclin D3; [3]): 33.3 nM

SMILES: CC(C)n1c(C#Cc2nc(N[C@@H]3CCOC[C@H]3O)ncc2Cl)cnc1C(C)(C)O [Example 2, (3S,4R)-4-((5-chloro-4-((2-(2-hydroxypropan-2-yl)-1-isopropyl-1H-imidazol-5-yl)ethynyl)pyrimidin-2-yl)amino)tetrahydro-2H-pyran-3-ol]
- IC50 (CDK2/cyclin E1): 1320 nM

SMILES: CCN1CC2(C1)CN(c1ccc(Nc3ncc(Cl)c(C#Cc4cnc(C)n4C(C)C)n3)nc1)C2 [Example 80, 5-chloro-N-(5-(6-ethyl-2,6-diazaspiro[3.3]heptan-2-yl)pyridin-2-yl)-4-((1-isopropyl-2-methyl-1H-imidazol-5-yl)ethynyl)pyrimidin-2-amine]
- IC50 (CDK6/cyclin D3; [3]): 12 nM
- IC50 (CDK4/cyclin D3; [3]): 2.65 nM

SMILES: Cc1ncc(C#Cc2nc(N[C@@H]3CCOC[C@H]3O)ncc2Cl)n1C(C)C [Example 79, (3 S,4R)-4-((5-chloro-4-((1-isopropyl-2-methyl-1H-imidazol-5-yl)ethynyl)pyrimidin-2-yl)amino)tetrahydro-2H-pyran-3-ol]
- IC50 (CDK6/cyclin D3; [3]): 179 nM
- IC50 (CDK4/cyclin D3; [3]): 17.2 nM

SMILES: CC(C)n1c(C#Cc2nc(Nc3ccc(N4CC5(CN(C)C5)C4)cn3)ncc2Cl)cnc1CN1CCC[C@H](O)C1 [Example 115, (S)-1-((5-((5-chloro-2-((5-(6-methyl-2,6-diazaspiro[3.3]heptan-2-yl)pyridin-2-yl)amino)pyrimidin-4-yl)ethynyl)-1-isopropyl-1H-imidazol-2-yl)methyl)piperidin-3-ol]
- IC50 (CDK6/cyclin D3; [3]): 17.9 nM
- IC50 (CDK4/cyclin D3; [3]): 2.28 nM

SMILES: [2H]C(C)(O)c1ncc(C#Cc2nc(N[C@@H]3CCOC[C@H]3O)ncc2Cl)n1C(C)C (stereo partly drawn) [Example 138, (3 S,4R)-4-((S-chloro-4-((2-(1-hydroxyethyl-1-d)-1-isopropyl-1H-imidazol-5-yl)ethynyl)pyrimidin-2-yl)amino)tetrahydro-2H-pyran-3-ol]
- IC50 (CDK6/cyclin D3; [3]): 38.4 nM
- IC50 (CDK4/cyclin D3; [3]): 5.92 nM

SMILES: CC(C)n1c(C#Cc2nc(N[C@@H]3CCOC[C@H]3O)ncc2Cl)cnc1CN1[C@@H](C)COC[C@@H]1C [Example 74, (3 S,4R)-4-((5-chloro-4-((2-(((3 S,5 S)-3,5-dimethylmorpholino)methyl)-1-isopropyl-1H-imidazol-5-yl)ethynyl)pyrimidin-2-yl)amino)tetrahydro-2H-pyran-3-ol]
- IC50 (CDK6/cyclin D3; [3]): 341 nM
- IC50 (CDK4/cyclin D3; [3]): 20.1 nM

SMILES: CC(C)n1c(C#Cc2cc(N[C@@H]3CCOC[C@H]3O)ncc2Cl)cnc1C(C)(C)O [Example 118, (3 S,4R)-4-((5-chloro-4-((2-(2-hydroxypropan-2-yl)-1-isopropyl-1H-imidazol-5-yl)ethynyl)pyridin-2-yl)amino)tetrahydro-2H-pyran-3-ol]
- IC50 (CDK6/cyclin D3; [3]): 135 nM
- IC50 (CDK4/cyclin D3; [3]): 21.7 nM

SMILES: CC(C)n1c(C#Cc2nc(N[C@@H]3CCOC[C@H]3O)ncc2Cl)cnc1C1CCCN1 (stereo partly drawn) [Example 68, (3 S,4R)-4-((5-chloro-4-((1-isopropyl-2-(pyrrolidin-2-yl)-1H-imidazol-5-yl)ethynyl)pyrimidin-2-yl)amino)tetrahydro-2H-pyran-3-ol]
- IC50 (CDK6/cyclin D3; [3]): 2600 nM
- IC50 (CDK4/cyclin D3; [3]): 76.7 nM

SMILES: CC(C)n1c(C#Cc2nc(N[C@@H]3CCOC[C@H]3O)ncc2Cl)cnc1C1CC1 [Example 120, (3 S,4R)-4-((5-chloro-4-((2-cyclopropyl-1-isopropyl-1H-imidazol-5-yl)ethynyl)pyrimidin-2-yl)amino)tetrahydro-2H-pyran-3-ol]
- IC50 (CDK6/cyclin D3; [3]): 130 nM
- IC50 (CDK4/cyclin D3; [3]): 26.1 nM

SMILES: CC1CCOc2ncc(C#Cc3nc(N[C@@H]4CCOC[C@H]4O)ncc3Cl)n21 (stereo partly drawn) [Example 132, (3 S,4R)-4-((5-chloro-4-((5-methyl-6,7-dihydro-5H-imidazo[2,1-o][1,3]oxazin-3-yl)ethynyl)pyrimidin-2-yl)amino)tetrahydro-2H-pyran-3-ol]
- IC50 (CDK6/cyclin D3; [3]): 243 nM
- IC50 (CDK4/cyclin D3; [3]): 93.7 nM

SMILES: CCN1CCC(c2ccc(Nc3ncc(Cl)c(C#Cc4cnc(C(C)(C)O)n4C(C)C)n3)nc2)CC1 [Example 76, 2-(5-((5-chloro-2-((5-(1-ethylpiperidin-4-yl)pyridin-2-yl)amino)pyrimidin-4-yl)ethynyl)-1-isopropyl-1H-imidazol-2-yl)propan-2-ol]
- IC50 (CDK6/cyclin D3; [3]): 6.53 nM
- IC50 (CDK4/cyclin D3; [3]): 2.9 nM

SMILES: CCN1CCN(Cc2ccc(Nc3ncc(F)c(C#Cc4cnn(C)c4C(C)C)n3)nc2)CC1 [Example 70, N-(5-((4-ethylpiperazin-1-yl)methyl)pyridin-2-yl)-5-fluoro-4-((5-isopropyl-1-methyl-1H-pyrazol-4-yl)ethynyl)pyrimidin-2-amine]
- IC50 (CDK6/cyclin D3; [3]): 131 nM
- IC50 (CDK4/cyclin D3; [3]): 15.1 nM
